Experimental data taken from patent publication US4731486A, “Hydroformylation using low volatile phosphine ligands” (Union Carbide Corporation, priority 1986, dated 1988).

Tests used:
[1] = Batch hydroformylation of butene-1 (Examples 14, 19); details: 100° C., 300 ppm Rh
Procedure: Each rhodium catalytic precursor solution so prepared was then employed to hydroformylate propylene in a magnetically stirred, 100 mL capacity, stainless steel autoclave which was attached to a gas manifold for introducing gases to the desired partial pressures. The autoclave was also equipped with a pressure calibrator for determining reaction pressure to ±0.01 psia. and a platinum resistance thermometer for determining reactor solution temperatures to ±0.10° C. The reactor was heated externally by two 300 watt heating bands. The reactor solution temperature was controlled by a platinum resistance sensor connected to an external proportional temperature controller for controlling the temperature of the external band heaters.
In each non-aqueous hydroformylation reaction, about 15 milliliters (about 14 grams) of the rhodium catalytic precursor solution so prepared was charged to the autoclave reactor under nitrogen and heated to the reaction temperature employed (as given in Table 1 below). The reactor was then vented down to 5 psig. and a premixed gas mixture of 1:1:1 carbon monoxide:hydrogen:propylene was introduced into the reactor via the gas manifold (partial pressures given in Table 1) and the propylene so hydroformylated.
The hydroformylation reaction rate in gram moles per liter per hour of C4 aldehydes produced was determined from sequential 5 psia. pressure drops in the reactor spanning the nominal operating pressure in the reactor, while the mole ratio of linear (n-butyraldehyde) to branched (2-methylpropionaldehyde) product was measured by gas chromatography and the results are given in Table 1 below.
The same procedure and conditions employed in Example 1 of preparing various rhodium catalytic precursor solutions using rhodium dicarbonyl acetylacetonate, about a 3:1 (wt.:wt. ratio) mixture of Texanol® and CARBOWAX® TPEG-990 (about 25 wt. %) as the solubilizing agent, and a monosulfonated triphenylphosphine sodium salt ligand having the formula [drawing 26] and hydroformylating an olefin was repeated employing the various rhodium complex catalyst precursor solutions and using different alpha olefins as the hydroformylation feedstocks and the reaction conditions as shown in Table 14 below.
A comparison of the catalytic activity of aqueous and non-aqueous solutions of monosulfonated triphenylphosphine sodium salt ligand promoted catalysts in hydroformylating various molecular weight alphe-olefins was determined as follows.
The same procedure and conditions employed in Example 1 of preparing rhodium catalytic precursor solutions, using rhodium dicarbonyl acetylacetonate, monosulfonated triphenylphosphine sodium salt having the formula as shown in Example 4 in either a non-aqueous organic solubilizing agent solution or water, as given in Table 19 below, and hydroformylating the various alpha-olefins was repeated employing the various rhodium complex precursor solutions and hydroformylation reaction conditions as shown in Table 19 below. Both the aqueous and non-aqueous hydroformylation reactions were conducted under identical conditions with regard to temperature, rhodium and ligand concentration, hydrogen and carbon monoxide partial pressure and olefin concentration.

[2] = Batch hydroformylation of dodecene-1 (Examples 13, 14, 18, 19)
[3] = Continuous single pass hydroformylation of butene-1 (Examples 3, 4, 5, 7, 12); details: Texanol/PEG-600 10:1
Procedure: Continuous hydroformylation of butene-1 a monosulfonated triphenylphosphine metal salt ligand was conducted in the following manner.
The non-aqueous hydroformylation was conducted in a glass reactor operating in a continuous single pass butene-1 hydroformylation mode. The reactor consisted of a three-ounce pressure bottle submersed in an oil bath with a lass front for viewing. About 20-mL of a freshly prepared rhodium catalytic precursor solution was charged to the reactor with a syringe, after purging the system with nitrogen. […] After closing the reactor, the system was again purged with nitrogen and the oil bath was heated to furnish the desired hydroformylation reaction temperature. The hydroformylation reaction was conducted at a total gas pressure of about 160 psig., the partial pressures of hydrogen, carbon monoxide, and butene-1 being given in Table 3 below, the remainder being nitrogen and aldehyde product.
The flows of the feed gases (carbon monoxide, hydrogen, butene-1 and nitrogen) were controlled individually with mass flow meters and the feed gases dispersed into the precursor solution via microporous stainless steel spargers. The unreacted portion of the feed gases was stripped out with the product C5 aldehydes and the outlet gas analyzed over about 12 days of continuous operation.

[4] = Solubility of TPPMS-Na in various aldehydes with solubilizing agent mixture; assay type: physicochemical; details: TERGITOL 24-L-75N/CARBOWAX TPEG-900 (4:1)
Text: The solubilizing agent mixture was employed in a 1:2 weight:weight ratio with the various aldehydes.

[5] = HPLC analysis of ligand concentration in hydroformylation reaction mediums; assay type: physicochemical; details: both reactors, six days of operation
[6] = Continuous catalyst liquid recycle hydroformylation of octene-1 (Example 6)
Text: In a continuous catalyst liquid recycle manner, an olefin starting material of octene-1 was hydroformylated for six days as follows.
The liquid recycle reactor system employed contained two 2.8 liter stainless steel stirred tank reactors, connected in series, each containing a vertically mounted agitator and a circular tubular sparger near the bottom of the reactor for feeding the syn gas. The sparger contained a plurality of holes of sufficient size to provide the desired gas flow into the liquid body. Reactor 1 contained a silicone oil shell as means of bringing the contents of the reactors up to reaction temperature while the reaction solution in Reactor 2 was heated by an electrical heater. Both reactors contained internal cooling coils for controlling the reaction temperature. Reactors 1 and 2 were connected via a line to transfer any unreacted gases from reactor 1 to reactor 2 and were further connected via a line so that a portion of the liquid reaction solution containing aldehyde product and catalyst from reactor 1 could be pumped into reactor 2 wherein the unreacted olefin of reactor 1 is further hydroformylated in reactor 2.
Each reactor also contained a pneumatic liquid level controller for automatic control of the liquid levels in the reactors. Reactor 1 further contained a line for introducing the liquid olefin using a metering pump, and a line for introducing syn gas through the sparger, while make up syn gas was added to reactor 2 via the same transfer line carrying the unreacted syn gas from reactor 1. Reactor 2 also contained a blow-off vent for removal of the unreacted gases. A line from the bottom of reactor 2 was connected to the top of a vaporizer so that a portion of the liquid reaction solution could be pumped from reactor 2 to the vaporizer. The vaporizer was maintained at reduced pressure with the help of a vacuum pump. Vaporized aldehyde was disengaged from the non-volatilized components of the liquid reaction solution in the gas-liquid separator part of the vaporizer. The remaining non-volatilized catalyst containing liquid reaction solution was pumped through a recycle line back into reactor 1. The recycle line also contained a pneumatic liquid level controller. The vaporized aldehyde product was passed into a water-cooled condenser, liquified and collected in a product receiver.

[7] = Texanol/TPEG-990 3:1, 8.7 wt. % ligand, 75 psia 4:1 H2:CO
[8] = aqueous (water as solvent), 90 psia 1:1 H2:CO
[9] = non-aqueous (Texanol/Carbowax TPEG990 2.6:1), 90 psia 1:1 H2:CO
[10] = 25 ppm Rh, 100 °C, Ligand/Rhodium 10, H2 20, CO 40 psia, 5.0 ml olefin
[11] = 200 ppm Rh, 100 °C, Ligand/Rhodium 100, H2 10, CO 40 psia, 5.0 ml olefin
[12] = 200 ppm Rh, 100 °C, Ligand/Rhodium 100, H2 100, CO 40 psia, 5.0 ml olefin
[13] = 200 ppm Rh, 120 °C, Ligand/Rhodium 200, H2 20, CO 40 psia, 5.0 ml olefin
[14] = 500 ppm Rh, 70 °C, Ligand/Rhodium 50, H2 20, CO 40 psia, 5.0 ml olefin
[15] = Texanol/TPEG-990 3:1, 100° C., 300 ppm Rh, 8.7 wt. % ligand, 75 psia 4:1 H2:CO
[16] = aqueous (water as solvent), 100° C., 300 ppm Rh, 90 psia 1:1 H2:CO
[17] = heptanal, CARBOWAX PEG-600, 100° C., 200 ppm Rh, 60 psia 2:1 H2:CO, two liquid organic layers
[18] = heptanal, TERGITOL 15-S-3/NIAX PPG-1025/Dimethyl Sulfoxide (4:1:1), 100° C., 200 ppm Rh, 60 psia 2:1 H2:CO
[19] = heptanal, TERGITOL 24-L-75N/CARBOWAX TPEG-990 (4:1), 100° C., 200 ppm Rh, 60 psia 2:1 H2:CO
[20] = heptanal, TERGITOL NP-9, 100° C., 200 ppm Rh, 60 psia 2:1 H2:CO
[21] = non-aqueous (Texanol/Carbowax TPEG990 2.6:1), 100° C., 300 ppm Rh, 90 psia 1:1 H2:CO
[22] = day 0.9, […], CO 51, H2 59, C4H8 20 psia
[23] = day 2.0, 101 °C, CO 51, H2 47, C4H8 22 psia
[24] = day 3.0, 101 °C, CO 20, H2 53, C4H8 24 psia
[25] = day 4.0, 101 °C, CO 20, H2 30, C4H8 39 psia
[26] = day 5.6, 101 °C, CO 15, H2 64, C4H8 31 psia
[27] = day 5.9 (so in the source), 101 °C, CO 15, H2 63, C4H8 31 psia
[28] = day 1, reactors 80.1/85.8, CO 17.0/9.9 psia
[29] = day 2, reactors 80.0/85.6, CO 7.8/2.2 psia
[30] = day 3, reactors 80.1/85.7, CO 8.1/6.5 psia
[31] = day 6, reactors 80.0/85.0, CO 10.1/8.3 psia

In the case of O=S(=O)([O-])c1cccc(P(c2ccccc2)c2ccccc2)c1.[Na+], the “Linear/Branched Aldehyde Mole Ratio” value [1, 7] is reported as 12.8, the “Reaction Rate” value [1, 7] is reported as 5.96 G moles/L/hr and the “Linear/Branched Aldehyde Mole Ratio” value [1, 8] is reported as 37.1. The “Reaction Rate” value [1, 8] was 0.44 G Moles/L/Hr, the “Linear/Branched Aldehyde Mole Ratio” value [1, 9] was 5.1 and the “Reaction Rate” value [1, 9] was 6.94 G Moles/L/Hr. The “Linear/Branched Aldehyde Mole Ratio” value [2, 10] was 3.4, the “Reaction Rate (C13 aldehydes)” value [2, 10] was 1.37 Gram/Moles L/Hr and the “Linear/Branched Aldehyde Mole Ratio” value [2, 11] was 16.9. The “Reaction Rate (C13 aldehydes)” value [2, 11] was 1.13 Gram/Moles L/Hr, the “Linear/Branched Aldehyde Mole Ratio” value [2, 12] was 4.1 and the “Reaction Rate (C13 aldehydes)” value [2, 12] was 1.41 Gram/Moles L/Hr. The “Linear/Branched Aldehyde Mole Ratio” value [2, 13] was 9.56, the “Reaction Rate (C13 aldehydes)” value [2, 13] was 1.24 Gram/Moles L/Hr and the “Linear/Branched Aldehyde Mole Ratio” value [2, 14] was 5.5. The “Reaction Rate (C13 aldehydes)” value [2, 14] was 0.51 Gram/Moles L/Hr, the “Linear/Branched Aldehyde Mole Ratio” value [2, 15] was 10.8 and the “Reaction Rate” value [2, 15] was 1.04 G moles/L/hr. The “Linear/Branched Aldehyde Mole Ratio” value [2, 16] was 43.4, the “Reaction Rate” value [2, 16] was 0.03 G Moles/L/Hr and the “Linear/Branched Aldehyde Mole Ratio” value [2, 17] was 12.0. The “Reaction Rate” value [2, 17] was 0.72 G moles/L/hr, the “Linear/Branched Aldehyde Mole Ratio” value [2, 18] was 13.2 and the “Reaction Rate” value [2, 18] was 0.51 G moles/L/hr. For the same compound, the “Linear/Branched Aldehyde Mole Ratio” value [2, 19] was 13.6, the “Reaction Rate” value [2, 19] was 0.62 G moles/L/hr and the “Linear/Branched Aldehyde Mole Ratio” value [2, 20] was 14.2. For the same compound, the “Reaction Rate” value [2, 20] was 0.77 G moles/L/hr, the “Linear/Branched Aldehyde Mole Ratio” value [2, 21] was 6.6 and the “Reaction Rate” value [2, 21] was 4.49 G Moles/L/Hr. The “Linear/Branched Aldehyde Mole Ratio” value [3, 22] was 7.68, the “Rate (C5 aldehydes), daily average” value [3, 22] was 1.68 gmoles/L/Hr and the “Linear/Branched Aldehyde Mole Ratio” value [3, 23] was 9.21. For the same compound, the “Rate (C5 aldehydes), daily average” value [3, 23] was 1.81 gmoles/L/Hr, the “Linear/Branched Aldehyde Mole Ratio” value [3, 24] was 21.08 and the “Rate (C5 aldehydes), daily average” value [3, 24] was 1.60 gmoles/L/Hr. For the same compound, the “Linear/Branched Aldehyde Mole Ratio” value [3, 25] was 19.83, the “Rate (C5 aldehydes), daily average” value [3, 25] was 2.50 gmoles/L/Hr and the “Linear/Branched Aldehyde Mole Ratio” value [3, 26] was 23.74. For the same compound, the “Rate (C5 aldehydes), daily average” value [3, 26] was 2.05 gmoles/L/Hr, the “Linear/Branched Aldehyde Mole Ratio” value [3, 27] was 22.82 and the “Rate (C5 aldehydes), daily average” value [3, 27] was 2.06 gmoles/L/Hr. For the same compound, the “TPPMS-Na Solubility at 25 deg. C.” value ([4]; Butyraldehyde) was greater than 20 Weight Percent, the “TPPMS-Na Solubility at 25 deg. C.” value ([4]; Heptanal) was 18 Weight Percent and the “TPPMS-Na Solubility at 25 deg. C.” value ([4]; Nonanal) was 12 Weight Percent. For the same compound, the “TPPMS-Na Solubility at 25 deg. C.” value ([4]; Tridecanal) was 8 Weight Percent, the “TPPMS-Na Solubility at 25 deg. C.” value ([4]; Valeraldehyde) was greater than 20 Weight Percent and the “change in ligand concentration of reaction mediums” value [5] was “no significant change”. The “C9 Aldehydes (rate)” value [6, 28] was 1.02 gmoles/L/hr, the “Linear/Branched Aldehyde Ratio” value [6, 28] was 14.0 and the “C9 Aldehydes (rate)” value [6, 29] was 0.84 gmoles/L/hr. The “Linear/Branched Aldehyde Ratio” value [6, 29] was 27.2, the “C9 Aldehydes (rate)” value [6, 30] was 0.81 gmoles/L/hr and the “Linear/Branched Aldehyde Ratio” value [6, 30] was 24.7. The “C9 Aldehydes (rate)” value [6, 31] was 1.02 gmoles/L/hr and the “Linear/Branched Aldehyde Ratio” value [6, 31] was 22.5.
